This is an account of results in patent US12714706B2, “Methods of treating small cell lung cancer with lurbinectedin formulations” (PHARMA MAR, S.A., priority 2019, dated 2026).

This data set is described as follows: Analytical results and impurity profile of batches of Form A and Form B of lurbinectedin. On the set-up: Impurity RRT approx. 1.10-1.11 / Impurity RRT approx. 1.12 / Impurity RRT approx. 1.27-1.34 / Impurity RRT approx. 1.29-1.30 / Impurity RRT approx. 1.30-1.32 / Impurity RRT approx. 1.28-1.37 / Impurity RRT approx. 2.37 / Impurity RRT approx. 2.41-2.52 / Impurity RRT approx. 2.85 / Impurity RRT approx. 0.66-0.69 / Impurity RRT approx. 0.72-0.76: unit not given here. The data set is classed as physicochemical. An excerpt:
Several batches of Form A of lurbinectedin were manufactured by this method.
Several batches of Form B of lurbinectedin were manufactured by this method.

The mark [1] stands for this setting: impurity profile, batches of Form A.
The mark [2] stands for this setting: batches of Form A of lurbinectedin.
Setting [3] is: batches of Form B of lurbinectedin.
Setting [4] is: impurity profile, batches of Form B.

Regarding `COc1ccc2[nH]c3c(c2c1)CCN[C@]31CS[C@@H]2c3c(OC(C)=O)c(C)c4c(c3[C@H](COC1=O)N1[C@@H]2[C@H]2c3c(cc(C)c(OC)c3O)C[C@@H]([C@@H]1O)N2C)OCO4` [Batch K04], under setting [1], the “Impurity RRT approx. 1.10-1.11” value is on record as 0.20, the “Impurity RRT approx. 1.29-1.30” value came out at 0.11 and the “Impurity RRT approx. 1.30-1.32” value was determined as 0.08.
With `COc1ccc2[nH]c3c(c2c1)CCN[C@]31CS[C@@H]2c3c(OC(C)=O)c(C)c4c(c3[C@H](COC1=O)N1[C@@H]2[C@H]2c3c(cc(C)c(OC)c3O)C[C@@H]([C@@H]1O)N2C)OCO4` [Batch M01], under setting [1], the “Impurity RRT approx. 0.72-0.76” value is on record as 0.10, the “Impurity RRT approx. 1.10-1.11” value is recorded as 0.08, the “Impurity RRT approx. 1.29-1.30” value stood at 0.10 and the “Impurity RRT approx. 1.30-1.32” value is on record as 0.18.
`COc1ccc2[nH]c3c(c2c1)CCN[C@]31CS[C@@H]2c3c(OC(C)=O)c(C)c4c(c3[C@H](COC1=O)N1[C@@H]2[C@H]2c3c(cc(C)c(OC)c3O)C[C@@H]([C@@H]1O)N2C)OCO4` [Batch M02]: under setting [1], the “Impurity RRT approx. 0.72-0.76” value came out at 0.08, the “Impurity RRT approx. 1.10-1.11” value worked out at 0.10, the “Impurity RRT approx. 1.28-1.37” value is 0.08 and the “Impurity RRT approx. 1.29-1.30” value worked out at 0.17. Also, under setting [1], the “Impurity RRT approx. 1.30-1.32” value amounted to 0.08.
In the case of `COc1ccc2[nH]c3c(c2c1)CCN[C@]31CS[C@@H]2c3c(OC(C)=O)c(C)c4c(c3[C@H](COC1=O)N1[C@@H]2[C@H]2c3c(cc(C)c(OC)c3O)C[C@@H]([C@@H]1O)N2C)OCO4` [Batch M03], under setting [1], the “Impurity RRT approx. 0.72-0.76” value is given as 0.12, the “Impurity RRT approx. 1.10-1.11” value is recorded as 0.11, the “Impurity RRT approx. 1.29-1.30” value is 0.10 and the “Impurity RRT approx. 1.30-1.32” value is recorded as 0.11.
For the compound `COc1ccc2[nH]c3c(c2c1)CCN[C@]31CS[C@@H]2c3c(OC(C)=O)c(C)c4c(c3[C@H](COC1=O)N1[C@@H]2[C@H]2c3c(cc(C)c(OC)c3O)C[C@@H]([C@@H]1O)N2C)OCO4` [Batch P01], under setting [2], the “Impurities Total” value was 0.3 % Area, the “Residual Solvents Acetonitrile” value stood at 0.01 % w/w, the “Residual Solvents Dichloro-methane” value is “<LOQ” and the “Residual Solvents Ethyl acetate” value is reported as “<LOQ”. Under setting [2], the “Residual Solvents Hexane” value is listed as “<LOQ”, the “Residual Solvents Methanol” value amounted to 1.1 % w/w, the “Residual Solvents Pentane” value is recorded as 0.2 % w/w and the “Residual Solvents Total” value was 1.4 % w/w. The “Water Content” value under setting [2] worked out at 0.9 % w/w. Under setting [1], the “Impurity RRT approx. 1.10-1.11” value is on record as 0.15 and the “Impurity RRT approx. 1.29-1.30” value is recorded as 0.09.
Regarding `COc1ccc2[nH]c3c(c2c1)CCN[C@]31CS[C@@H]2c3c(OC(C)=O)c(C)c4c(c3[C@H](COC1=O)N1[C@@H]2[C@H]2c3c(cc(C)c(OC)c3O)C[C@@H]([C@@H]1O)N2C)OCO4` [Batch P02], under setting [2], the “Impurities Total” value is recorded as 0.4 % Area, the “Residual Solvents Acetonitrile” value was “<LOQ”, the “Residual Solvents Dichloro-methane” value was “<LOQ” and the “Residual Solvents Ethyl acetate” value is given as “<LOQ”. Further, under setting [2], the “Residual Solvents Hexane” value worked out at 0.01 % w/w, the “Residual Solvents Methanol” value was found to be 1.7 % w/w, the “Residual Solvents Pentane” value was 0.2 % w/w and the “Residual Solvents Total” value is given as 1.9 % w/w. The “Water Content” value under setting [2] is reported as 1.2 % w/w. Under setting [1], the “Impurity RRT approx. 1.10-1.11” value is given as 0.09, the “Impurity RRT approx. 1.29-1.30” value was 0.06 and the “Impurity RRT approx. 1.30-1.32” value is recorded as 0.13.
For `COc1ccc2[nH]c3c(c2c1)CCN[C@]31CS[C@@H]2c3c(OC(C)=O)c(C)c4c(c3[C@H](COC1=O)N1[C@@H]2[C@H]2c3c(cc(C)c(OC)c3O)C[C@@H]([C@@H]1O)N2C)OCO4` [Batch P03], under setting [2], the “Impurities Total” value is 0.3 % Area, the “Residual Solvents Acetonitrile” value is given as “<LOQ”, the “Residual Solvents Dichloro-methane” value was found to be 0.01 % w/w and the “Residual Solvents Ethyl acetate” value is “<LOQ”. Under setting [2], the “Residual Solvents Hexane” value was “<LOQ”, the “Residual Solvents Methanol” value is reported as 1.6 % w/w, the “Residual Solvents Pentane” value is given as 0.3 % w/w and the “Residual Solvents Total” value came to 1.9 % w/w. Moreover, the “Water Content” value under setting [2] is reported as 1.6 % w/w. Moreover, under setting [1], the “Impurity RRT approx. 1.12” value is 0.07 and the “Impurity RRT approx. 1.29-1.30” value is 0.09.
Take `COc1ccc2[nH]c3c(c2c1)CCN[C@]31CS[C@@H]2c3c(OC(C)=O)c(C)c4c(c3[C@H](COC1=O)N1[C@@H]2[C@H]2c3c(cc(C)c(OC)c3O)C[C@@H]([C@@H]1O)N2C)OCO4` [Batch P05]: under setting [3], the “Residual Solvents AcOEt” value is reported as “<LOQ”, the “Residual Solvents Acetonitrile” value is reported as “<LOQ”, the “Residual Solvents CH2Cl2” value was “<LOQ” and the “Residual Solvents Hexane” value was “<LOQ”. Further, under setting [3], the “Residual Solvents Methanol” value is “<LOQ”, the “Residual Solvents Pentane” value is reported as “<LOQ”, the “Residual Solvents Total” value amounted to 0.0 % w/w and the “Total Impurities” value came to 0.3 % Area. In addition, the “Water Content” value under setting [3] is given as 2.1 % w/w. Also, under setting [4], the “Impurity RRT aprox 0.72-0.76” value came out at 0.24 % area and the “Impurity RRT aprox 1.10-1.11” value is reported as 0.07 % area.
Regarding `COc1ccc2[nH]c3c(c2c1)CCN[C@]31CS[C@@H]2c3c(OC(C)=O)c(C)c4c(c3[C@H](COC1=O)N1[C@@H]2[C@H]2c3c(cc(C)c(OC)c3O)C[C@@H]([C@@H]1O)N2C)OCO4` [Batch R01], under setting [3], the “Residual Solvents AcOEt” value is listed as “<LOQ”, the “Residual Solvents Acetonitrile” value is “<LOQ”, the “Residual Solvents CH2Cl2” value is “<LOQ” and the “Residual Solvents Hexane” value is “<LOQ”. Also, under setting [3], the “Residual Solvents Methanol” value was “<LOQ”, the “Residual Solvents Pentane” value is given as “<LOQ”, the “Residual Solvents Total” value came out at 0.0 % w/w and the “Total Impurities” value is 0.3 % Area. Further, under setting [3], the “Water Content” value is listed as 1.9 % w/w. Moreover, under setting [4], the “Impurity RRT aprox 0.72-0.76” value was found to be 0.22 % area and the “Impurity RRT aprox 1.10-1.11” value worked out at 0.09 % area.
Take `COc1ccc2[nH]c3c(c2c1)CCN[C@]31CS[C@@H]2c3c(OC(C)=O)c(C)c4c(c3[C@H](COC1=O)N1[C@@H]2[C@H]2c3c(cc(C)c(OC)c3O)C[C@@H]([C@@H]1O)N2C)OCO4` [Batch R02]: under setting [3], the “Residual Solvents Acetonitrile” value was “<LOQ”, the “Residual Solvents CH2Cl2” value is recorded as “<LOQ”, the “Residual Solvents Pentane” value is “<LOQ” and the “Residual Solvents Total” value came out at 0.0 % w/w. In addition, under setting [3], the “Total Impurities” value turned out to be 0.3 % Area and the “Water Content” value turned out to be 2.0 % w/w. Also, the “Impurity RRT aprox 0.72-0.76” value under setting [4] came to 0.28 % area.
`COc1ccc2[nH]c3c(c2c1)CCN[C@]31CS[C@@H]2c3c(OC(C)=O)c(C)c4c(c3[C@H](COC1=O)N1[C@@H]2[C@H]2c3c(cc(C)c(OC)c3O)C[C@@H]([C@@H]1O)N2C)OCO4` [Batch R03]: under setting [3], the “Residual Solvents Acetonitrile” value was “<LOQ”, the “Residual Solvents CH2Cl2” value is “<LOQ”, the “Residual Solvents Methanol” value is “<LOQ” and the “Residual Solvents Pentane” value is on record as “<LOQ”. In addition, under setting [3], the “Residual Solvents Total” value was 0.0 % w/w, the “Total Impurities” value stood at 0.3 % Area and the “Water Content” value is reported as 1.7 % w/w. Moreover, under setting [4], the “Impurity RRT aprox 0.66-0.69” value was 0.05 % area and the “Impurity RRT aprox 0.72-0.76” value stood at 0.22 % area.
